Measured values: US7419776B1, “Method of reducing pathogen load” (priority 1999, dated 2008)

Test system: Candida albicans
Experiment: Fungal load: patient with severe candidiasis (present-tense example)
Format: in vivo, human
Conditions: two weeks, before YG Product
Method: The following present-tense examples are intended to illustrate and summarize the teachings of the preceding examples that describe actual clinical data with over 100 AIDS and ARC patients.
The candidiasis clears. A dose is administered by one of the following routes: intradermally, subcutaneously, orally, transmucosally, sublingually, or transdermally.

Compound: OC(Cn1cncn1)(Cn1cncn1)c1ccc(F)cc1F [Fluconazole]
- effect of antifungal treatment alone on severe candidiasis: without effect
